# Reference: patent US20230085307A1, “PYRIDAZINONE COMPOUND AND HERBICIDE” (NISSAN CHEMICAL CORPORATION, priority 2019, published 2023)
# Tested on: Chinese sprangletop
# Assay: Test Example 3: herbicidal effect by foliage application, Wagner pot (Table 18, symbol D)
# Format: in vivo, chinese sprangletop (Leptochloa chinensis)
# Settings: 320 g/ha
# Procedure, shortened: (§1)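 Plants were sown in alluvial soil held under 0.1–0.5 cm standing water and grown 14 days in a greenhouse at 25–30 °C. An emulsifiable formulation, water-diluted to the set dose, was then sprayed onto the foliage, and effects were scored three weeks later using previously defined criteria.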
row,SMILES,"herbicidal effect on D (Chinese sprangletop), rating 0-5"
1,CCCCCOc1ccc(-c2sc3ccccc3c2-c2c(O)c(C)nn(C)c2=O)cc1 [1-026],1 (Herbicidal rate of 5% or more and less than 20%)

# Tested on: southern crabgrass
# Assay: Test Example 4: herbicidal effect by soil treatment (Table 19, symbol F)
# Format: in vivo, southern crabgrass (Digitaria ciliaris)
# Settings: amount of applied herbicide 320 g/ha
# Procedure, shortened: (§2)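 Applied as a water-diluted emulsion, the compound was sprayed onto soil covering newly sown seeds. Evaluation came three weeks after application, in a greenhouse held at 25° C. to 30° C.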
row,SMILES,"herbicidal effect rating, F: southern crabgrass"
1,CCCCCOc1ccc(-c2sc3ccccc3c2-c2c(O)c(C)nn(C)c2=O)cc1 [1-026],0 (Herbicidal rate of 5% or less (almost no effect))

# Tested on: lambsquarters
# Assay: Test Example 5: herbicidal effect by foliage application, plastic box (Table 20, symbol O)
# Format: in vivo, lambsquarters (Chenopodium album)
# Settings: foliage application, 320 g/ha, three weeks after application
# Procedure, shortened: (§3)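 Sow seeds spot-wise in sterilized diluvial soil; cover with ~1.5 cm soil. Grow 14 days in greenhouse, 25° C. to 30° C. Spray foliage with emulsion diluted to predetermined amount. Rate effect after 3 weeks.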
row,SMILES,"herbicidal effect grade, O: lambsquarters"
1,CCCCCOc1ccc(-c2sc3ccccc3c2-c2c(O)c(C)nn(C)c2=O)cc1 [1-026],0 (Herbicidal rate of 5% or less (almost no effect))

# Tested on: persian speedwell
# Assay: Test Example 4: herbicidal effect by soil treatment (Table 19, symbol R)
# Format: in vivo, Persian speedwell (Veronica persica)
# Settings: amount of applied herbicide 320 g/ha
# Procedure, shortened: as §2
row,SMILES,"herbicidal effect rating, R: persian speedwell"
1,CCCCCOc1ccc(-c2sc3ccccc3c2-c2c(O)c(C)nn(C)c2=O)cc1 [1-026],3 (Herbicidal rate of 40% or more and less than 70%)

# Tested on: lambsquarters
# Assay: Test Example 4: herbicidal effect by soil treatment (Table 19, symbol O)
# Format: in vivo, lambsquarters (Chenopodium album)
# Settings: amount of applied herbicide 320 g/ha
# Procedure, shortened: as §2
row,SMILES,"herbicidal effect rating, O: lambsquarters"
1,CCCCCOc1ccc(-c2sc3ccccc3c2-c2c(O)c(C)nn(C)c2=O)cc1 [1-026],0 (Herbicidal rate of 5% or less (almost no effect))

# Tested on: blackgrass
# Assay: Test Example 5: herbicidal effect by foliage application, plastic box (Table 20, symbol J)
# Format: in vivo, blackgrass (Alopecurus myosuroides)
# Settings: foliage application, 320 g/ha, three weeks after application
# Procedure, shortened: as §3
row,SMILES,"herbicidal effect grade, J: blackgrass"
1,CCCCCOc1ccc(-c2sc3ccccc3c2-c2c(O)c(C)nn(C)c2=O)cc1 [1-026],4 (Herbicidal rate of 70% or more and less than 90%)

# Tested on: late watergrass
# Assay: Test Example 2: herbicidal activity, application during weed generation under submerged conditions (Table 17, symbol A)
# Format: in vivo, late watergrass (Echinochloa oryzicola)
# Settings: AAH 320 g/ha; application during weed generation, submerged conditions
# Procedure, shortened: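 Steps: fill Wagner pots with alluvial soil; add water to give 4 cm depth; sow the species mixed; grow under glass at 25–30° C.; at 1–2 leaves apply water-diluted emulsion formulation to the water surface at a fixed herbicide amount; score after 3 weeks.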
row,SMILES,"herbicidal effect rating, A: late watergrass"
1,CCCCCOc1ccc(-c2sc3ccccc3c2-c2c(O)c(C)nn(C)c2=O)cc1 [1-026],2 (Herbicidal rate of 20% or more and less than 40%)

# Tested on: Italian ryegrass
# Assay: Test Example 5: herbicidal effect by foliage application, plastic box (Table 20, symbol K)
# Format: in vivo, Italian ryegrass (Lolium multiflorum)
# Settings: foliage application, 320 g/ha, three weeks after application
# Procedure, shortened: as §3
row,SMILES,"herbicidal effect grade, K: Italian ryegrass"
1,CCCCCOc1ccc(-c2sc3ccccc3c2-c2c(O)c(C)nn(C)c2=O)cc1 [1-026],2 (Herbicidal rate of 20% or more and less than 40%)

# Tested on: Italian ryegrass
# Assay: Test Example 4: herbicidal effect by soil treatment (Table 19, symbol K)
# Format: in vivo, Italian ryegrass (Lolium multiflorum)
# Settings: amount of applied herbicide 320 g/ha
# Procedure, shortened: as §2
row,SMILES,"herbicidal effect rating, K: Italian ryegrass"
1,CCCCCOc1ccc(-c2sc3ccccc3c2-c2c(O)c(C)nn(C)c2=O)cc1 [1-026],0 (Herbicidal rate of 5% or less (almost no effect))

# Tested on: velvetleaf
# Assay: Test Example 4: herbicidal effect by soil treatment (Table 19, symbol M)
# Format: in vivo, velvetleaf (Abutilon theophrasti)
# Settings: amount of applied herbicide 320 g/ha
# Procedure, shortened: as §2
row,SMILES,"herbicidal effect rating, M: velvetleaf"
1,CCCCCOc1ccc(-c2sc3ccccc3c2-c2c(O)c(C)nn(C)c2=O)cc1 [1-026],0 (Herbicidal rate of 5% or less (almost no effect))

# Tested on: redroot pigweed
# Assay: Test Example 5: herbicidal effect by foliage application, plastic box (Table 20, symbol N)
# Format: in vivo, redroot pigweed (Amaranthus retroflexus)
# Settings: foliage application, 320 g/ha, three weeks after application
# Procedure, shortened: as §3
row,SMILES,"herbicidal effect grade, N: redroot pigweed"
1,CCCCCOc1ccc(-c2sc3ccccc3c2-c2c(O)c(C)nn(C)c2=O)cc1 [1-026],5 (Herbicidal rate of 90% or more (almost completely withered))

# Tested on: velvetleaf
# Assay: Test Example 5: herbicidal effect by foliage application, plastic box (Table 20, symbol M)
# Format: in vivo, velvetleaf (Abutilon theophrasti)
# Settings: foliage application, 320 g/ha, three weeks after application
# Procedure, shortened: as §3
row,SMILES,"herbicidal effect grade, M: velvetleaf"
1,CCCCCOc1ccc(-c2sc3ccccc3c2-c2c(O)c(C)nn(C)c2=O)cc1 [1-026],5 (Herbicidal rate of 90% or more (almost completely withered))

# Tested on: barnyard grass
# Assay: Test Example 3: herbicidal effect by foliage application, Wagner pot (Table 18, symbol H)
# Format: in vivo, barnyard grass (Echinochloa crus-galli)
# Settings: 320 g/ha
# Procedure, shortened: as §1
row,SMILES,"herbicidal effect on H (barnyard grass), rating 0-5"
1,CCCCCOc1ccc(-c2sc3ccccc3c2-c2c(O)c(C)nn(C)c2=O)cc1 [1-026],4 (Herbicidal rate of 70% or more and less than 90%)

# Tested on: windgrass
# Assay: Test Example 4: herbicidal effect by soil treatment (Table 19, symbol L)
# Format: in vivo, windgrass (Apera spica-venti)
# Settings: amount of applied herbicide 320 g/ha
# Procedure, shortened: as §2
row,SMILES,"herbicidal effect rating, L: windgrass"
1,CCCCCOc1ccc(-c2sc3ccccc3c2-c2c(O)c(C)nn(C)c2=O)cc1 [1-026],0 (Herbicidal rate of 5% or less (almost no effect))

# Tested on: late watergrass
# Assay: Test Example 1: herbicidal activity, application before weed generation under submerged conditions (Table 16, symbol A)
# Format: in vivo, late watergrass (Echinochloa oryzicola)
# Settings: 320 g/ha applied herbicide
# Procedure, shortened: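 Submerged Wagner pots (alluvial soil, 4 cm water) sown with weed seeds and planted with 2.5-leaf rice seedlings; emulsifiable concentrate diluted in water applied to water surface on sowing day. Held in greenhouse at 25-30 °C; injury scored 0-5 by herbicidal rate after three weeks.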
row,SMILES,Herbicidal effect on A: late watergrass (grade 0-5)
1,CCCCCOc1ccc(-c2sc3ccccc3c2-c2c(O)c(C)nn(C)c2=O)cc1 [1-026],1 (Herbicidal rate of 5% or more and less than 20%)

# Tested on: blackgrass
# Assay: Test Example 4: herbicidal effect by soil treatment (Table 19, symbol J)
# Format: in vivo, blackgrass (Alopecurus myosuroides)
# Settings: amount of applied herbicide 320 g/ha
# Procedure, shortened: as §2
row,SMILES,"herbicidal effect rating, J: blackgrass"
1,CCCCCOc1ccc(-c2sc3ccccc3c2-c2c(O)c(C)nn(C)c2=O)cc1 [1-026],0 (Herbicidal rate of 5% or less (almost no effect))
